Test results as given in US20250222003A1, “PHARMACEUTICAL COMPOSITION FOR TREATING SOLID TUMORS” (Eisai R&D Management Co., Ltd., priority 2021, published 2025).
Where two headings read alike, the source gives them in different places. Marks after values point to notes of the source that are not given here.

Legend:
[1] = Pharmacokinetics of Compound A, phase I dose-escalation part (plasma); assay type: in vivo, human; conditions: for AUC(0-t) / Cmax / Tmax / AUC / half-life: human, plasma, oral; for AUC(0-t): read-out: AUC(0-12 h); for half-life: read-out: Effective t1/2 (converted)
Method: In the treatment phase, Compound A (an oral formulation containing Compound A) is administered to the subjects of administration in one cycle of 28 days. The subjects continued to receive Compound A until disease progression, development of intolerable side effects, the desire for discontinuation of administration and consent withdrawal by the subjects of administration, or trial discontinuation by the clinical trial client. One cycle is 28 days of administration, and such an abbreviation as “C1D28” indicates the number of cycles and the number of days in the cycle, for example, “C1D28” means the 28th day of cycle 1 (the first cycle). The subjects of administration were hospitalized until the time of […] and took a medical consultation and physical examination at the time of C1D15, and if the principal investigator or sub investigator was judged, from the results, that there were no medical problems, the subjects were allowed to leave the hospital. If administration was to be continued after the completion of the medical consultation and physical examination at the time of C2D1, written consent for continuation was obtained before administration at the time of C2D1.
Tablets containing Compound A are used as Compound A and administered orally repeatedly twice daily (BID). The subjects fasted 2 hours before and 1 hour after administration. The tablets were taken with water and, if possible, at the prescribed time, but if this was not possible, the tablets were taken 8 hours or more after the previous administration.
In the dose-escalation part, blood was collected from the subjects of administration according to the schedule shown in Table 5, and the pharmacokinetics of Compound A was evaluated. In the expansion part, blood was collected from the subjects of administration before the first administration at C1D1 and CID8, 0.5, 1 and 2 hours after the oral administration of Compound A, and before the first administration at C2D1, and the pharmacokinetics of Compound A was evaluated. The data for C1D1 (the first day of the first cycle) corresponds to the results of a single-dose administration, and the data for C1D8 (the eighth day of the first cycle) corresponds to the results after multiple-dose administration for 8 days at 2 doses per 1 day.
a Based on 5 patients; b based on 2 patients; c based on 3 patients. tmax is reported as median (range). All other values are reported as geometric mean (% CV). Parameters with two patients are reported for both patients.

[2] = test system: patients with a solid tumor; assay: Suppression of nausea or vomiting associated with administration of Compound A by antiemetics; assay type: in vivo, human
Excerpt: For subjects of administration that had the gastrointestinal symptoms, nausea or vomiting, the results of administration of various antiemetics were investigated to determine whether they could suppress the occurrence of nausea or vomiting. The antiemetics used were domperidone ([…], Nauzelin tablet), metoclopramide (peripheral D2 receptor antagonist, metoclopramide tablet), ramosetron hydrochloride (5-HT3 receptor antagonist, Nasea tablet), granisetron (5-HT3 receptor antagonist (Kytril tablet), and the like.
The antiemetics were timely administered to 20 subjects of administration that complained of vomiting during Cycle 1.
FIGS. 1 and 2 are graphs showing the relationship between Cmax(Cmax,ss) or AUC (AUC(0-tau),ss) and the vomiting flag for each test subject at the time of CID8. For example, the vomiting flag 3 means a case in which treatment with an antiemetic other than the 5-HT3 receptor antagonist was first attempted but vomiting could not be suppressed, and vomiting could be suppressed when the antiemetic was switched to the 5-HT3 receptor antagonist.
Five additional patients were investigated whether the occurrence of nausea or vomiting, which is an adverse event having a causal relationship with Compound A, could be suppressed. Ramosetron hydrochloride or granisetron hydrochloride (5-HT3 receptor antagonist) was administered to four patients of administration that complained of vomiting during Cycle 1. Of the four patients that complained of vomiting, three patients received granisetron hydrochloride to prevent the gastrointestinal symptoms (nausea, vomiting) associated with administration of Compound A.

[3] = C1D8, 160 mg BID (n = 2), both patients
[4] = 160 mg, C1D8, 160 mg BID (n = 2), both patients

With `C=CCN1CC(=O)N2[C@@H](Cc3ccc(O)cc3F)C(=O)N(Cc3cccc(N4CC(N5CCN(CC)CC5)C4)n3)C[C@@H]2N1C(=O)NCc1ccccc1` [Compound A, (6S,9aS)—N-benzyl-8-({6-[3-(4-ethylpiperazin-1-yl)azetidin-1-yl]pyridin-2-yl}methyl)-6-(2-fluoro-4-hydroxybenzyl)-4,7-dioxo-2-(prop-2-en-1-yl)hexahydro-2H-pyrazino[2,1-c][1,2,4]triazine-1 (6H)-carboxamide] the “relation of exposure to dosage” value ([1]; 10-160 mg BID, Tables 6 and 7) was “exposure amount increased as the dosage of Compound A increased”, the “Effective t1/2” value ([1]; C1D8, 20 mg BID, based on 2 patients, both patients) was 18.0 ^b h and the “C max, ss” value [1, 3] was 3850 ng/mL. For the same compound, the “Effective t1/2” value [1, 3] was 25.6 h, the “t max, ss” value [1, 3] was 1.00, 1.00 h and the AUC(0-t) ([1]; 10 mg, C1D1, 10 mg BID (n = 3), geometric mean) was 131 ng·h/mL. For the same compound, the Cmax ([1]; 10 mg, C1D1, 10 mg BID (n = 3), geometric mean, read-out: Cmax) was 37.2 ng/mL, the Tmax ([1]; 10 mg, C1D1, 10 mg BID (n = 3), median) was 2 h and the AUC ([1]; 10 mg, C1D8, 10 mg BID (n = 3), geometric mean, read-out: AUC (0-tau), ss) was 210 ng·h/mL. The Cmax ([1]; 10 mg, C1D8, 10 mg BID (n = 3), geometric mean, read-out: C max, ss) was 53.9 ng/mL, the Tmax ([1]; 10 mg, C1D8, 10 mg BID (n = 3), median) was 2 h and the AUC(0-t) ([1]; 15 mg, C1D1, 15 mg BID (n = 4), geometric mean) was 310 ng·h/mL. The Cmax ([1]; 15 mg, C1D1, 15 mg BID (n = 4), geometric mean, read-out: Cmax) was 135 ng/mL, the Tmax ([1]; 15 mg, C1D1, 15 mg BID (n = 4), median) was 0.75 h and the AUC ([1]; 15 mg, C1D8, 15 mg BID (n = 4), geometric mean, read-out: AUC (0-tau), ss) was 504 ng·h/mL. The Cmax ([1]; 15 mg, C1D8, 15 mg BID (n = 4), geometric mean, read-out: C max, ss) was 159 ng/mL, the half-life ([1]; 15 mg, C1D8, 15 mg BID (n = 4), geometric mean) was 7.1 h and the Tmax ([1]; 15 mg, C1D8, 15 mg BID (n = 4), median) was 0.75 h. The AUC(0-t) ([1]; 20 mg, C1D1, 20 mg BID (n = 3), geometric mean) was 501 ng·h/mL, the Cmax ([1]; 20 mg, C1D1, 20 mg BID (n = 3), geometric mean, read-out: Cmax) was 146 ng/mL and the Tmax ([1]; 20 mg, C1D1, 20 mg BID (n = 3), median) was 1 h. It also gave an AUC ([1]; 20 mg, C1D8, 20 mg BID (n = 3), geometric mean, read-out: AUC (0-tau), ss) of 866 ng·h/mL, a Cmax ([1]; 20 mg, C1D8, 20 mg BID (n = 3), geometric mean, read-out: C max, ss) of 278 ng/mL and a Tmax ([1]; 20 mg, C1D8, 20 mg BID (n = 3), median) of 0.5 h. The half-life ([1]; 20 mg, C1D8, 20 mg BID, based on 2 patients, both patients) was 12.2 h, the AUC(0-t) ([1]; 30 mg, C1D1, 30 mg BID (n = 3), geometric mean) was 349 ng·h/mL and the Cmax ([1]; 30 mg, C1D1, 30 mg BID (n = 3), geometric mean, read-out: Cmax) was 105 ng/mL. For the same compound, the Tmax ([1]; 30 mg, C1D1, 30 mg BID (n = 3), median) was 2 h, the AUC ([1]; 30 mg, C1D8, 30 mg BID (n = 3), geometric mean, read-out: AUC (0-tau), ss) was 396 ng·h/mL and the Cmax ([1]; 30 mg, C1D8, 30 mg BID (n = 3), geometric mean, read-out: C max, ss) was 68.3 ng/mL. For the same compound, the Tmax ([1]; 30 mg, C1D8, 30 mg BID (n = 3), median) was 2 h, the AUC(0-t) ([1]; 45 mg, C1D1, 45 mg BID (n = 4), geometric mean) was 865 ng·h/mL and the Cmax ([1]; 45 mg, C1D1, 45 mg BID (n = 4), geometric mean, read-out: Cmax) was 209 ng/mL. For the same compound, the Tmax ([1]; 45 mg, C1D1, 45 mg BID (n = 4), median) was 1 h, the AUC ([1]; 45 mg, C1D8, 45 mg BID (n = 4), geometric mean, read-out: AUC (0-tau), ss) was 1070 ng·h/mL and the Cmax ([1]; 45 mg, C1D8, 45 mg BID (n = 4), geometric mean, read-out: C max, ss) was 199 ng/mL. For the same compound, the half-life ([1]; 45 mg, C1D8, 45 mg BID (n = 4), geometric mean) was 6.59 h, the Tmax ([1]; 45 mg, C1D8, 45 mg BID (n = 4), median) was 3 h and the AUC(0-t) ([1]; 80 mg, C1D1, 80 mg BID (n = 3), geometric mean) was 758 ng·h/mL. The Cmax ([1]; 80 mg, C1D1, 80 mg BID (n = 3), geometric mean, read-out: Cmax) was 279 ng/mL, the Tmax ([1]; 80 mg, C1D1, 80 mg BID (n = 3), median) was 2 h and the AUC ([1]; 80 mg, C1D8, 80 mg BID (n = 3), geometric mean, read-out: AUC (0-tau), ss) was 2100 ng·h/mL. The Cmax ([1]; 80 mg, C1D8, 80 mg BID (n = 3), geometric mean, read-out: C max, ss) was 737 ng/mL, the half-life ([1]; 80 mg, C1D8, 80 mg BID (n = 3), geometric mean) was 17.4 h and the Tmax ([1]; 80 mg, C1D8, 80 mg BID (n = 3), median) was 1 h. For the same compound, the AUC(0-t) ([1]; 100 mg, C1D1, 100 mg BID (n = 6), geometric mean) was 1420 ng·h/mL, the Cmax ([1]; 100 mg, C1D1, 100 mg BID (n = 6), geometric mean, read-out: Cmax) was 443 ng/mL and the Tmax ([1]; 100 mg, C1D1, 100 mg BID (n = 6), median) was 0.5 h. The Cmax ([1]; 100 mg, C1D8, 100 mg BID (n = 6), geometric mean, read-out: C max, ss) was 862 ng/mL, the half-life ([1]; 100 mg, C1D8, 100 mg BID (n = 6), geometric mean) was 13 h and the Tmax ([1]; 100 mg, C1D8, 100 mg BID (n = 6), median) was 1 h. The AUC ([1]; 100 mg, C1D8, 100 mg BID, based on 5 patients, geometric mean, read-out: AUC (0-tau), ss) was 2700 ng·h/mL, the AUC(0-t) ([1]; 120 mg, C1D1, 120 mg BID (n = 3), geometric mean) was 1910 ng·h/mL and the Cmax ([1]; 120 mg, C1D1, 120 mg BID (n = 3), geometric mean, read-out: Cmax) was 557 ng/mL. For the same compound, the Tmax ([1]; 120 mg, C1D1, 120 mg BID (n = 3), median) was 2 h, the AUC(0-t) ([1]; 120 mg, C1D1, 120 mg BID (n = 8, incl. additional cases), geometric mean) was 1910 ng·h/mL and the Cmax ([1]; 120 mg, C1D1, 120 mg BID (n = 8, incl. additional cases), geometric mean, read-out: Cmax) was 557 ng/mL. It also gave a Tmax ([1]; 120 mg, C1D1, 120 mg BID (n = 8, incl. additional cases), median) of 2 h, an AUC ([1]; 120 mg, C1D8, 120 mg BID (n = 3), geometric mean, read-out: AUC (0-tau), ss) of 2460 ng·h/mL and a Cmax ([1]; 120 mg, C1D8, 120 mg BID (n = 3), geometric mean, read-out: C max, ss) of 737 ng/mL. The half-life ([1]; 120 mg, C1D8, 120 mg BID (n = 3), geometric mean) was 5.49 h, the Tmax ([1]; 120 mg, C1D8, 120 mg BID (n = 3), median) was 1 h and the AUC ([1]; 120 mg, C1D8, 120 mg BID (n = 8), based on n = 7 subjects, geometric mean, read-out: AUC (0-tau), ss) was 2460 ng·h/mL. It also gave a Cmax ([1]; 120 mg, C1D8, 120 mg BID (n = 8), based on n = 7 subjects, geometric mean, read-out: C max, ss) of 751 ng/mL, a Tmax ([1]; 120 mg, C1D8, 120 mg BID (n = 8), based on n = 7 subjects, median) of 1 h and an AUC ([1]; 160 mg BID, C1D8, read-out: lowest value of AUC(0-tau),ss of the subjects in which vomiting could not be suppressed even after the 5-HT3 receptor antagonist) of 9060 ng·h/mL. It also gave a Tmax ([1]; 160 mg, C1D1, 160 mg BID (n = 2), both patients) of 0.5 h, a Tmax [1, 4] of 1 h and a Cmax ([1]; 160 mg, C1D8, 160 mg BID (n = 2), both patients, read-out: C max, ss) of 2980 ng/mL. For the same compound, the half-life [1, 4] was 17.5 h, the AUC ([1]; C1D8, read-out: highest value of AUC(0-tau),ss of the subjects in which vomiting could be suppressed by the 5-HT3 receptor antagonist) was 7640 ng·h/mL and the “Vomiting flag 0, N: neither nausea nor vomiting observed, or antiemetics not required” value ([2]; Table 10, before additional cases) was 10. For the same compound, the “Vomiting flag 0, N: neither nausea nor vomiting observed, or antiemetics not required” value ([2]; Table 14, entire dose-escalation part incl. additional cases) was 11.
